Data as given in patent US20100317524A1, “Sulfonylureas” (Bayer CropScience AG, priority 2005, published 2010).

Tested on: weed plants such as Sinapis alba, Chrysanthemum segetum, Avena sativa, Stellaria media, Echinochloa crus-galli, Lolium multiflorum, Setaria viridis, Abutilon …
Assay: Pre-emergence effect on weeds (greenhouse pot test, visual scoring)
Assay type: in vivo
Conditions: applied pre-emergence at a rate of 0.3 kg or less of active substance per hectare; visual scoring after 3 to 4 weeks vs untreated controls
Source text: Seeds or sections of rhizome from monocot and dicot weed plants were laid out in sandy loam soil in cardboard pots, and covered with soil. The compounds of the invention, formulated as wettable powders or emulsifiable concentrates, were then applied, in the form of aqueous suspensions or emulsions, at various dosages, onto the surface of the covering earth, at an application rate of 600 to 800 l of water per hectare (converted). Following the treatment, the pots were placed in a greenhouse and maintained under good growth conditions for the weeds. Visual scoring of the plant damage or emergence damage was made when the test plants had emerged, after a test time of 3 to 4 weeks, in comparison to untreated controls.

Which “herbicidal action against weed plants, pre-emergence” value (from here on “herbicidal action … pre-emergence”) does the source give for `COc1cc(Cl)nc(NC(=O)NS(=O)(=O)c2c(I)cccc2OS(C)(=O)=O)n1` [Compound 1.472] here?
Its value is “very good herbicidal action”.

With `COc1cc(Cl)nc(NC(=O)NS(=O)(=O)c2c(I)cccc2OCC(F)(F)F)n1` [Compound 1.344] as the compound, how does the “herbicidal action … pre-emergence” value read?
Its value is “very good herbicidal action”.

`COc1nc(NC(=O)NS(=O)(=O)c2c(I)cccc2OCC(F)F)nc(OC)n1` [Compound 1.355] was tested. Which “herbicidal action … pre-emergence” value did it give?
Its value is “very good herbicidal action”.

`COc1nc(NC(=O)NS(=O)(=O)c2c(I)cccc2OCC2CC2)nc(OC)n1` [Compound 1.242] was tested. Which “herbicidal action … pre-emergence” value did it give?
The value was “very good herbicidal action”.

`CCCOc1cccc(I)c1S(=O)(=O)NC(=O)Nc1nc(OC)cc(OC)n1` [Compound 1.171] was tested. Which “herbicidal action … pre-emergence” value did it give?
The value was “very good herbicidal action”.

With `CCCCOc1cccc(I)c1S(=O)(=O)NC(=O)Nc1nc(Cl)cc(OC)n1` [Compound 1.555] as the compound, how does the “herbicidal action … pre-emergence” value read?
The value was “very good herbicidal action”.

With `CCC(C)Oc1cccc(I)c1S(=O)(=O)NC(=O)Nc1nc(C)nc(OC)n1` (stereo not drawn) [Compound 1.557] as the compound, how does the “herbicidal action … pre-emergence” value read?
The value was “very good herbicidal action”.

For `COc1cc(Cl)nc(NC(=O)NS(=O)(=O)c2c(I)cccc2OC(C)C)n1` [Compound 1.187], which “herbicidal action … pre-emergence” value is on record?
Its value is “very good herbicidal action”.

How did the “herbicidal action … pre-emergence” value turn out when `CCOc1cccc(I)c1S(=O)(=O)NC(=O)Nc1nc(OC)nc(OC)n1` [Compound 1.168] was run?
The value was “very good herbicidal action”.

`Cc1cc(C)nc(NC(=O)NS(=O)(=O)c2c(I)cccc2OS(=O)(=O)N(C)C)n1` [Compound 1.509] was tested. Which “herbicidal action … pre-emergence” value did it give?
Its value is “very good herbicidal action”.

With `Cc1cc(C)nc(NC(=O)NS(=O)(=O)c2c(F)cccc2I)n1` [Compound 1.003] as the compound, how does the “herbicidal action … pre-emergence” value read?
Its value is “very good herbicidal action”.

`COc1nc(NC(=O)NS(=O)(=O)c2c(I)cccc2OC)nc(OC)n1` [Compound 1.159] was tested. Which “herbicidal action … pre-emergence” value did it give?
The value was “very good herbicidal action”.

How did the “herbicidal action … pre-emergence” value turn out when `COc1nc(C)nc(NC(=O)NS(=O)(=O)c2c(I)cccc2OCC2CC2)n1` [Compound 1.233] was run?
The value was “very good herbicidal action”.

With `CCCOc1cccc(I)c1S(=O)(=O)NC(=O)Nc1nc(Cl)cc(OC)n1` [Compound 1.174] as the compound, how does the “herbicidal action … pre-emergence” value read?
The value was “very good herbicidal action”.

Which “herbicidal action … pre-emergence” value does the source give for `COc1cc(OC)nc(NC(=O)NS(=O)(=O)c2c(I)cccc2OCC(C)C)n1` [Compound 1.197] here?
The value was “very good herbicidal action”.

Tested on: weed plants such as Sinapis alba, Echinochloa crus-galli, Lolium multiflorum, Chrysanthemum segetum, Setaria viridis, Abutilon theophrasti, Amaranthus …
Assay: Post-emergence effect on weeds (greenhouse pot test, visual scoring)
Assay type: in vivo
Conditions: applied post-emergence (three-leaf stage) at a rate of 0.3 kg or less of active substance per hectare; visual scoring after about 3 to 4 weeks vs untreated controls
Protocol: Seeds or sections of rhizome from monocot and dicot broadleaf weeds were laid out in sandy loam soil in plastic pots, covered with earth, and cultivated in a greenhouse under good growth conditions. Three weeks after sowing, the test plants were treated at the three-leaf stage. The compounds of the invention, formulated as wettable powders or as emulsion concentrates, were sprayed in different dosages onto the green parts of the plants, at an application rate of 600 to 800 l of water per hectare (converted). After the test plants had stood in the greenhouse under optimum growth conditions for a period of about 3 to 4 weeks, the effect of the products was scored visually in comparison to untreated controls.

With `COc1cc(Cl)nc(NC(=O)NS(=O)(=O)c2c(I)cccc2OS(C)(=O)=O)n1` [Compound 1.472] as the compound, how does the “herbicidal action against weed plants, post-emergence” value (“herbicidal action … post-emergence” below) read?
The value was “very good herbicidal action”.

With `COc1cc(Cl)nc(NC(=O)NS(=O)(=O)c2c(I)cccc2OCC(F)(F)F)n1` [Compound 1.344] as the compound, how does the “herbicidal action … post-emergence” value read?
The value was “very good herbicidal action”.

With `COc1nc(NC(=O)NS(=O)(=O)c2c(I)cccc2OCC(F)F)nc(OC)n1` [Compound 1.355] as the compound, how does the “herbicidal action … post-emergence” value read?
The value was “very good herbicidal action”.

`COc1nc(NC(=O)NS(=O)(=O)c2c(I)cccc2OCC2CC2)nc(OC)n1` [Compound 1.242] was tested. Which “herbicidal action … post-emergence” value did it give?
Its value is “very good herbicidal action”.

`CCCOc1cccc(I)c1S(=O)(=O)NC(=O)Nc1nc(OC)cc(OC)n1` [Compound 1.171] was tested. Which “herbicidal action … post-emergence” value did it give?
Its value is “very good herbicidal action”.

For `CCCCOc1cccc(I)c1S(=O)(=O)NC(=O)Nc1nc(Cl)cc(OC)n1` [Compound 1.555], which “herbicidal action … post-emergence” value is on record?
The value was “very good herbicidal action”.

With `CCC(C)Oc1cccc(I)c1S(=O)(=O)NC(=O)Nc1nc(C)nc(OC)n1` (stereo not drawn) [Compound 1.557] as the compound, how does the “herbicidal action … post-emergence” value read?
Its value is “very good herbicidal action”.

Which “herbicidal action … post-emergence” value does the source give for `COc1cc(Cl)nc(NC(=O)NS(=O)(=O)c2c(I)cccc2OC(C)C)n1` [Compound 1.187] here?
Its value is “very good herbicidal action”.

Which “herbicidal action … post-emergence” value does the source give for `CCOc1cccc(I)c1S(=O)(=O)NC(=O)Nc1nc(OC)nc(OC)n1` [Compound 1.168] here?
Its value is “very good herbicidal action”.

`Cc1cc(C)nc(NC(=O)NS(=O)(=O)c2c(I)cccc2OS(=O)(=O)N(C)C)n1` [Compound 1.509] was tested. Which “herbicidal action … post-emergence” value did it give?
The value was “very good herbicidal action”.

For `Cc1cc(C)nc(NC(=O)NS(=O)(=O)c2c(F)cccc2I)n1` [Compound 1.003], which “herbicidal action … post-emergence” value is on record?
The value was “very good herbicidal action”.

With `COc1nc(NC(=O)NS(=O)(=O)c2c(I)cccc2OC)nc(OC)n1` [Compound 1.159] as the compound, how does the “herbicidal action … post-emergence” value read?
The value was “very good herbicidal action”.

Which “herbicidal action … post-emergence” value does the source give for `COc1nc(C)nc(NC(=O)NS(=O)(=O)c2c(I)cccc2OCC2CC2)n1` [Compound 1.233] here?
Its value is “very good herbicidal action”.

For `CCCOc1cccc(I)c1S(=O)(=O)NC(=O)Nc1nc(Cl)cc(OC)n1` [Compound 1.174], which “herbicidal action … post-emergence” value is on record?
The value was “very good herbicidal action”.

With `COc1cc(OC)nc(NC(=O)NS(=O)(=O)c2c(I)cccc2OCC(C)C)n1` [Compound 1.197] as the compound, how does the “herbicidal action … post-emergence” value read?
The value was “very good herbicidal action”.
